22 compounds from ChEMBL document CHEMBL3414566, “Synthesis, docking and ADMET studies of novel chalcone triazoles for anti-cancer and anti-diabetic activity” (Eur J Med Chem, 2015) can be followed below.

For one test, the system named is HepG2. Kind of test: Anticancer activity against human HepG2 cells by MTT assay. The test is classed as functional, cell-based. A general note: Tetrazolium dyes change colour on reduction, which living cells bring about.
Test [1] is described as follows: Anticancer activity against human IMR32 cells by MTT assay. The test is classed as functional, cell-based, IMR-32.
Test [2] in a line: Inhibition of rat intestinal alpha-glucosidase using nitrophenyl-alpha-D-glucopyranoside by spectrophotometrically.
For the next test, the system named is A549. Kind of test: Anticancer activity against human A549 cells by MTT assay. The test is classed as functional, cell-based.
A further test concerns DU-145. Kind of test: Anticancer activity against human DU145 cells by MTT assay. The test is classed as functional, cell-based.
In another test the test system is MCF7. In words: Anticancer activity against human MCF7 cells by MTT assay. The test is classed as functional, cell-based.
[3] abbreviates: Homo sapiens, IMR-32, read-out: IC50.
The mark [4] stands for this setting: Homo sapiens, A549, read-out: IC50.
Where [5] appears, read: Homo sapiens, HepG2, read-out: IC50.
Where [6] appears, read: Homo sapiens, MCF7, read-out: IC50.
The mark [7] stands for this setting: Homo sapiens, DU-145, read-out: IC50.

As usually defined, the IC50 is the concentration needed to halve the response being measured. As for `CC1(C)CCc2cc(C(=O)/C=C/c3ccc(OCc4cn(-c5ccc(Cl)cc5)nn4)cc3)c(O)cc2O1`, the IC50 result is “Not Active” in the test with HepG2 (hepg2); 92.1 µM in test [1] (setting [3]); “Not Active” in test [2]; 75.5 µM in the test on A549 (setting [4]); “Not Active” in the test with DU-145 (du-145); “Not Active” in the test with MCF7 (mcf7).
Turning to `CC1(C)CCc2cc(C(=O)/C=C/c3ccc(OCc4cn(-c5ccc(Br)cc5)nn4)cc3)c(O)cc2O1`, the IC50 entry in the test with HepG2 (hepg2) was “Not Active”; in test [1] (setting [3]), 69.4 µM; in test [2] it was “Not Active”; with A549 (setting [4]) it was 80 µM; in the test on DU-145 (du-145) it was “Not Active”; in the test on MCF7 (mcf7), “Not Active”.
On to `Cc1c(-n2cc(COc3ccc(/C=C/C(=O)c4cc5c(cc4O)OC(C)(C)CC5)cc3)nn2)cccc1[N+](=O)[O-]`, for which the IC50 in the test with HepG2 (setting [5]) is 109 µM; in test [1] (imr-32), “Not Active”; in test [2] it was “Not Active”; with A549 (setting [4]), 65.9 µM; with DU-145 (du-145) it was “Not Active”; in the test with MCF7 (setting [6]) it was 176 µM.
As to `COc1ccc(-n2cc(COc3ccc(/C=C/C(=O)c4cc5c(cc4O)OC(C)(C)CC5)cc3)nn2)c([N+](=O)[O-])c1`, the IC50 entry in the test with HepG2 (hepg2) is “Not Active”; in test [1] (imr-32), “Not Active”; in test [2], “Not Active”; in the test on A549 (setting [4]), 99.5 µM; in the test on DU-145 (du-145), “Not Active”; in the test on MCF7 (mcf7), “Not Active”.
Take `CC(=O)c1ccc(-n2cc(COc3ccc(/C=C/C(=O)c4cc5c(cc4O)OC(C)(C)CC5)cc3)nn2)cc1`: the IC50 entry in the test on HepG2 (hepg2) is “Not Active”; in test [1] (imr-32) it was “Not Active”; in test [2], “Not Active”; in the test on A549 (setting [4]), 66.3 µM; with DU-145 (du-145), “Not Active”; in the test with MCF7 (setting [6]), 182 µM.
Turning to `CCc1ccccc1-n1cc(COc2ccc(/C=C/C(=O)c3cc4c(cc3O)OC(C)(C)CC4)cc2)nn1`, the IC50 was 115 µM in the test with HepG2 (setting [5]); “Not Active” in test [1] (imr-32); “Not Active” in test [2]; 137 µM in the test with A549 (setting [4]); “Not Active” with DU-145 (du-145); “Not Active” with MCF7 (mcf7).
Take `Cc1ccc(-n2cc(COc3ccc(/C=C/C(=O)c4cc5c(cc4O)OC(C)(C)CC5)cc3)nn2)cc1Br`: the IC50 with HepG2 (setting [5]) is 117 µM; in test [1] (imr-32), “Not Active”; in test [2], “Not Active”; in the test on A549 (setting [4]) it was 125 µM; in the test on DU-145 (du-145) it was “Not Active”; in the test on MCF7 (mcf7), “Not Active”.
As for `CC1(C)CCc2c(ccc(C(=O)/C=C/c3ccc(OCc4cn(-c5ccc(Cl)cc5)nn4)cc3)c2O)O1`, the IC50 is 102 µM in the test on HepG2 (setting [5]); “Not Active” in test [1] (imr-32); 128 µM in test [2] (read-out: IC50); “Not Active” in the test on A549 (a549); “Not Active” in the test on DU-145 (du-145); “Not Active” with MCF7 (mcf7).
Take `CC1(C)CCc2c(ccc(C(=O)/C=C/c3ccc(OCc4cn(-c5ccc(Br)cc5)nn4)cc3)c2O)O1`: the IC50 is 136 µM in the test on HepG2 (setting [5]); 117 µM in test [1] (setting [3]); “Not Active” in test [2]; 129 µM in the test on A549 (setting [4]); “Not Active” in the test on DU-145 (du-145); “Not Active” in the test on MCF7 (mcf7).
`Cc1c(-n2cc(COc3ccc(/C=C/C(=O)c4ccc5c(c4O)CCC(C)(C)O5)cc3)nn2)cccc1[N+](=O)[O-]`: the IC50 with HepG2 (setting [5]) is 115 µM; in test [1] (setting [3]), 73.5 µM; in test [2], “Not Active”; in the test with A549 (a549), “Not Active”; in the test with DU-145 (du-145) it was “Not Active”; with MCF7 (setting [6]), 145 µM.
For the compound `COc1ccc(-n2cc(COc3ccc(/C=C/C(=O)c4ccc5c(c4O)CCC(C)(C)O5)cc3)nn2)c([N+](=O)[O-])c1`, the IC50 with HepG2 (setting [5]) is 120 µM; in test [1] (setting [3]), 132 µM; in test [2] it was “Not Active”; with A549 (a549), “Not Active”; in the test with DU-145 (du-145) it was “Not Active”; in the test with MCF7 (setting [6]), 73.1 µM.
Turning to `CC(=O)c1ccc(-n2cc(COc3ccc(/C=C/C(=O)c4ccc5c(c4O)CCC(C)(C)O5)cc3)nn2)cc1`, the IC50 with HepG2 (setting [5]) is 91.4 µM; in test [1] (setting [3]), 89.5 µM; in test [2], “Not Active”; in the test on A549 (setting [4]), 149 µM; with DU-145 (du-145), “Not Active”; with MCF7 (setting [6]) it was 171 µM.
Consider `CCc1ccccc1-n1cc(COc2ccc(/C=C/C(=O)c3ccc4c(c3O)CCC(C)(C)O4)cc2)nn1`, for which the half-inhibitory concentration (IC50) in the test with HepG2 (setting [5]) was 67.8 µM; in test [1] (imr-32) it was “Not Active”; in test [2] (read-out: IC50) it was 67.8 µM; in the test with A549 (setting [4]), 112 µM; in the test on DU-145 (du-145), “Not Active”; in the test with MCF7 (mcf7) it was “Not Active”.
Consider `Cc1ccc(-n2cc(COc3ccc(/C=C/C(=O)c4ccc5c(c4O)CCC(C)(C)O5)cc3)nn2)cc1Br`, for which the IC50 in the test on HepG2 (setting [5]) is 110 µM; in test [1] (imr-32), “Not Active”; in test [2], “Not Active”; with A549 (a549) it was “Not Active”; in the test with DU-145 (du-145) it was “Not Active”; with MCF7 (mcf7), “Not Active”.
As to `CC1(C)CCc2cc(C(=O)/C=C/c3ccc(OCc4cn(Cc5ccc([N+](=O)[O-])cc5)nn4)cc3)c(O)cc2O1`, the IC50 is 109 µM in the test on HepG2 (setting [5]); 108 µM in test [1] (setting [3]); “Not Active” in test [2]; 35.8 µM in the test with A549 (setting [4]); “Not Active” with DU-145 (du-145); “Not Active” in the test with MCF7 (mcf7).
For `CCCCCn1cc(COc2ccc(/C=C/C(=O)c3cc4c(cc3O)OC(C)(C)CC4)cc2)nn1`, the IC50 in the test on HepG2 (setting [5]) was 95.8 µM; in test [1] (imr-32), “Not Active”; in test [2] (read-out: IC50) it was 74.9 µM; in the test on A549 (setting [4]), 91.3 µM; with DU-145 (du-145) it was “Not Active”; with MCF7 (mcf7) it was “Not Active”.
Turning to `CCCCCCCCn1cc(COc2ccc(/C=C/C(=O)c3cc4c(cc3O)OC(C)(C)CC4)cc2)nn1`, the IC50 was 127 µM in the test on HepG2 (setting [5]); 7.09 µM in test [1] (setting [3]); “Not Active” in test [2]; 50.8 µM in the test with A549 (setting [4]); “Not Active” with DU-145 (du-145); “Not Active” with MCF7 (mcf7).
Take `CC1(C)CCc2c(ccc(C(=O)/C=C/c3ccc(OCc4cn(Cc5ccc([N+](=O)[O-])cc5)nn4)cc3)c2O)O1`: the IC50 was 69.9 µM in the test on HepG2 (setting [5]); 17.3 µM in test [1] (setting [3]); “Not Active” in test [2]; 69.9 µM in the test with A549 (setting [4]); 29.9 µM in the test on DU-145 (setting [7]); 17.1 µM in the test on MCF7 (setting [6]).
Consider `CCCCCn1cc(COc2ccc(/C=C/C(=O)c3ccc4c(c3O)CCC(C)(C)O4)cc2)nn1`, for which the IC50 was 9.82 µM in the test with HepG2 (setting [5]); “Not Active” in test [1] (imr-32); 102 µM in test [2] (read-out: IC50); 48.6 µM with A549 (setting [4]); “Not Active” in the test on DU-145 (du-145); 191 µM with MCF7 (setting [6]).
For the compound `CCCCCCCCn1cc(COc2ccc(/C=C/C(=O)c3ccc4c(c3O)CCC(C)(C)O4)cc2)nn1`, the IC50 is 74.1 µM in the test with HepG2 (setting [5]); “Not Active” in test [1] (imr-32); “Not Active” in test [2]; “Not Active” in the test on A549 (a549); “Not Active” in the test with DU-145 (du-145); “Not Active” with MCF7 (mcf7).
For `C[C@H]1O[C@H](O[C@H]2[C@H](O)[C@@H](O)[C@@H](O[C@H]3[C@H](O)[C@@H](O)C(O)O[C@@H]3CO)O[C@@H]2CO)[C@H](O)[C@@H](O)[C@@H]1N[C@H]1C=C(CO)[C@@H](O)[C@H](O)[C@H]1O` (stereo partly specified) [ACARBOSE], the IC50 result with HepG2 (hepg2) is “Not Active”; in test [1] (imr-32), “Not Active”; in test [2] (read-out: IC50), 23.9 µM; with A549 (a549), “Not Active”; in the test on DU-145 (du-145) it was “Not Active”; in the test with MCF7 (mcf7) it was “Not Active”.
In the case of `COc1cccc2c1C(=O)c1c(O)c3c(c(O)c1C2=O)C[C@@](O)(C(=O)CO)C[C@@H]3O[C@H]1C[C@H](N)[C@H](O)[C@H](C)O1` [DOXORUBICIN], the IC50 in the test with HepG2 (setting [5]) is 1.05 µM; in test [1] (setting [3]) it was 44.4 µM; in test [2], “Not Active”; with A549 (setting [4]), 69.3 µM; in the test with DU-145 (setting [7]) it was 17.7 µM.
